According to patent publication US20240051975A1 (TSINGHUA UNIVERSITY, priority 2020, published 2024):

Assays:
NAMPT [1] = biological target: T1, NAMPT (Homo sapiens, UniProt P43490); test: NAMPT enzyme activity assay coupled with NMNAT1 and ADH (NADH fluorescence); details: for Relative activation of NAMPT activity: AUC of dose-response curve (0.1, 0.3, 1, 3, 10 μM) relative to AUC of NAT (NAT = 1), 1 μM NAMPT, 200 μM NAM
Description: The NAMPT enzyme activity was assayed by a method coupled with the three enzymes: NAMPT, NMNAT1 and alcohol dehydrogenase (ADH). NAMPT synthesizes NMN from NAM and PRPP, NMNAT1 synthesizes NAD from NMN produced in the first step, and ADH converts NAD into detectable fluorescent NADH. […] The reaction was initiated by adding 200 μM nicotinamide (NAM) and mixing gently. The enzyme activity of NAMPT was expressed as the concentration of NADH generated per minute (the molar value was equal to NAD). The relative enzyme activity of NAMPT in each compound-treated group was normalized by the value of the DMSO-treated group, and a dose-response curve was drawn to evaluate the effect of individual compounds on NAMPT enzyme activity. The area under the dose-response curve (AUC, area under curve) was then calculated for individual compound and compared to the AUC of NAT, so that the obtained relative value quantitative Eauc represented the enzyme activation activity of each compound, and the specific calculation formula was shown in FIG. 3.

[2] = tested on: cell death induced by the NAMPT inhibitor FK866; test: Protection against cell death induced by the NAMPT inhibitor FK866 (Celltiter-Glo, cellular ATP); format: cell-based; details: AUC of dose-response curve (0.1-10 μM) relative to AUC of NAT; 10 nM FK866, 72 hours, cell viability by ATP
Description: In the latter cell-based assay, we determined the degree of protection of NAT and derivatives thereof against the NAMPT inhibitor FK866. […] After 72 hours, Celltiter-Glo (Promega) was used to detect cellular ATP levels to reflect cell viability and normalized to the DMSO group. A dose-response curve was drawn to evaluate the cytoprotective activity of individual compounds against FK866. Then the area under the dose-response curve (AUC, area under curve) of each compound was calculated and compared with the AUC of NAT, so that the obtained relative value quantitatively expressed the cytoprotective activity of each compound.

NAMPT [3] = biological target: T1, NAMPT; test: Isothermal calorimetric titration (ITC) binding to NAMPT
Description: We verified the direct binding between in vitro expressed and purified NAMPT and NAT by isothermal calorimetric titration (ITC). […] The final data were fitted using a single-point model.

T1 sequence (P43490 whole entry, species assumed): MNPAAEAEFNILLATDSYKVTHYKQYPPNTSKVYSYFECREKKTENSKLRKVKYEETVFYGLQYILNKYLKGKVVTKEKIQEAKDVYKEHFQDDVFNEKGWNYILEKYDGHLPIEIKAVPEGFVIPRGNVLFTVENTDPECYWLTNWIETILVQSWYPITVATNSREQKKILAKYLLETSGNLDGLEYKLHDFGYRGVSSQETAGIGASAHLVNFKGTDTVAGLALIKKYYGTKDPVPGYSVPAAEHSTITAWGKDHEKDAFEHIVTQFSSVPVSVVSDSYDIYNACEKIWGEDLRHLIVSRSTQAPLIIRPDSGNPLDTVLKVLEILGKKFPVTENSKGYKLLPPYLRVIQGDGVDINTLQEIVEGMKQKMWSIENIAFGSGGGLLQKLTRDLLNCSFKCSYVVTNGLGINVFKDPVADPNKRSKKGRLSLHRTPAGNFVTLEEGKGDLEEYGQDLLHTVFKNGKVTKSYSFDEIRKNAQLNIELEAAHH

NAMPT activation activity (in words) (NAMPT [1]) | Relative activation of NAMPT activity (NAMPT [1]) | binding to NAMPT (in words) (NAMPT [3]) | SMILES | Relative cytoprotective activity [2]
cannot activate NAMPT | −0.2247 | cannot bind NAMPT | CC(C)(C)c1ccccc1OCC(=O)Nc1ccccc1 [Compound 2, 2-(2-(tert-butyl)phenoxy)-N-phenylacetamide] | 0.02446
– | −0.1622 | – | CC(C)(C)c1cccc(CNC(=O)Nc2ccc(O)cc2)c1 [Compound 20, 1-(3-tert-butyl)benzyl-3-(4-hydroxyl)phenylurea] | 0.135
– | −0.2162 | – | CC(C)(C)c1cccc(OCC(=O)NCc2ccc(O)cc2)c1 [Compound 22, 2-(3-(tert-butyl)phenoxy)-N-(4-hydroxybenzyl)acetamide] | 0.1187
– | 0.2389 | – | O=C(COc1ccccc1C(F)(F)F)Nc1ccc(O)cc1 [Compound 23, N-(4-hydroxyphenyl)-2-(2-(trifluoromethyl)phenoxy)acetamide] | 0.2337
– | 1.35 | – | CC(C)c1ccccc1OCC(=O)Nc1ccc(O)cc1 [Compound 24, N-(4-hydroxyphenyl)-2-(2-isopropylphenoxy)acetamide] | 0.5447
– | 0.2583 | – | CC(C)(C)c1ccccc1OCC(=O)Nc1ccc(O)cc1Cl [Compound 36, 2-(2-(tert-butyl)phenoxy)-N-(2-chloro-4-hydroxyphenyl)acetamide] | 0.06922
– | 0.03898 | – | CC(C)(C)c1ccccc1OCC(=O)Nc1ccc(O)cc1F [Compound 40, 2-(2-(tert-butyl)phenoxy)-N-(2-fluoro-4-hydroxyphenyl)acetamide] | 0.1859
– | 0.1348 | – | CC(C)(C)c1ccccc1OCC(=O)Nc1ccc(O)c(F)c1 [Compound 41, 2-(2-(tert-butyl)phenoxy)-N-(3-fluoro-4-hydroxyphenyl)acetamide] | 0.9588
– | 1.382 | – | COc1ccc(OCC(=O)Nc2ccc(O)cc2)c(C(C)(C)C)c1 [Compound 51] | 1.402
– | 1.488 | – | CC(C)(C)c1cc(O)ccc1OCC(=O)Nc1ccc(O)cc1 [Compound 52] | 1.358
– | 0.327 | – | Cc1cccc(C(C)(C)C)c1OCC(=O)Nc1ccc(O)cc1 [Compound 53, 2-(2-(tert-butyl)-6-methylphenoxy)-N-(4-hydroxyphenyl)acetamide] | 0.571
– | 0.1726 | – | Cc1ccc(C(C)(C)C)c(OCC(=O)Nc2ccc(O)cc2)c1 [Compound 55, 2-(2-(tert-butyl)-5-methylphenoxy)-N-(4-hydroxyphenyl)acetamide] | 0.6623
– | 0.3183 | – | CC(C)(C)c1cc(Cl)ccc1OCC(=O)Nc1ccc(O)cc1 [Compound 57, 2-(2-(tert-butyl)-4-chlorophenoxy)-N-(4-hydroxyphenyl)acetamide] | 1.099
– | 0.5159 | – | CC(C)(C)c1cccc(CO)c1OCC(=O)Nc1ccc(O)cc1 [Compound 58, 2-(2-(tert-butyl)-6-(hydroxymethyl)phenoxy)-N-(4-hydroxyphenyl)acetamide] | 0.8071
– | 0.4032 | – | CC(C)(C)c1cc(Br)ccc1OCC(=O)Nc1ccc(O)cc1 [Compound 61, 2-(4-bromo-2-(tert-butyl)phenoxy)-N-(4-hydroxyphenyl)acetamide] | 1.285
– | 0.5464 | – | COC(=O)c1ccc(C(C)(C)C)c(OCC(=O)Nc2ccc(O)cc2)c1 [Compound 62, 4-(tert-butyl)-3-(24(4-hydroxyphenyl)amino)-2-oxoethoxy)methyl benzoate] | 0.7359
– | 2.041 | – | CC(C)(C)c1ccc(C(N)=O)cc1OCC(=O)Nc1ccc(O)cc1 [Compound 63] | 1.065
– | −0.0799 | – | CC(C)(C)c1ccc(C(=O)O)cc1OCC(=O)Nc1ccc(O)cc1 [Compound 64] | 0.2131
– | 0.00292 | – | COC(=O)c1cccc(C(C)(C)C)c1OCC(=O)Nc1ccc(O)cc1 [Compound 65, 3-(tert-butyl)-2-(2-((4-hydroxyphenyl)amino)-2-oxoethoxy)methyl benzoate] | 0.1431
– | 1.2627 | – | CC(C)(C)c1cc(C#N)ccc1OCC(=O)Nc1ccc(O)cc1 [Compound 66, 2-(2-(tert-butyl)-4-cyanophenoxy)-N-(4-hydroxyphenyl)acetamide] | 1.569
